Where “and” joins values, the source holds several entries; their conditions need not be identical. Equal values may be shown once. Read-outs that look alike come from different tables or passages of the source.
Experiments:
rat α-thrombin = biological target: T1, rat α-thrombin (Rattus norvegicus, UniProt P18292); test: Protease inhibition, Ki for rat α-thrombin (fluorogenic substrate Z-Gly-Gly-Arg-AMC); type: biochemical; details: for Rat alpha thrombin inhibition, slope normalized to DMSO: replicates R1-R3
T1 construct: rat α-thrombin (Molecular Innovations) were used at final concentrations of 2 nM and 3 nM; purchased Molecular Innovations
Method: (§1) The inhibition constants (Ki) of cyclic peptides were calculated by measuring thrombin inhibition in the presence of different concentrations of the cyclic peptides. […] Human α-thrombin (Molecular Innovations) and rat α-thrombin (Molecular Innovations) were used at final concentrations of 2 nM and 3 nM, respectively, and fluorogenic substrate (Z-Gly-Gly-Arg-AMC, Bachem) was used at a concentration of 50 μM. Enzymatic activity was determined by measuring fluorescent gain on a Tecan Infinite M200 Pro microplate reader (excitation: 360 nm, emission: 465 nm) or a PHERAstar FSX microplate reader (excitation: 380 nm, emission: 440 nm) for 30 min at 25 °C with a fluorescent readout every 3 min. The two instruments were controlled with Tecan Infinite M200 Pro instrument software (iControl, version 1.12) and PHERAstar FSX software (version 5.70, edition 8), respectively. Protease inhibition was calculated by comparing the enzymatic activity to a control without cyclic peptide.
(§2) Half maximal inhibitory concentration (IC50) values were determined using a four-parameter logistic regression model in GraphPad Prism 9 to fit sigmoidal curves to the acquired data points according to equation (2) below.2 y=b+a−b/1+10^(logIC50−x)p where a and b represent the measured inhibition maximum and minimum, respectively; x is the logarithm of peptide concentration; y is the thrombin activity compared to a control without the cyclic peptide; and p is the Hill coefficient.
(§3) Ki values were calculated using the IC50 and the Cheng–Prusoff equation (equation (3)).3 Ki=IC50/1+S0/Km where Km is the Michaelis–Menten constant of the enzyme for the substrate used in the assay, and [S]0 is the initial substrate concentration.

human α-thrombin = human α-thrombin (Homo sapiens, UniProt P00734); test: Protease inhibition, Ki for human α-thrombin (fluorogenic substrate Z-Gly-Gly-Arg-AMC); type: biochemical; details: for Human alpha thrombin inhibition, slope normalized to DMSO: replicates R1-R3
Method: as §1, §2, §3

[1] = Passive artificial membrane permeability (PAMPA);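 as to Permeability% Average: top well sample relative to theoretical equilibrium sample by TIC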
[2] = peptide concentration 1.00E+02 uM
[3] = peptide concentration 1.19E-05 uM
[4] = peptide concentration 1.22E-02 uM
[5] = peptide concentration 1.25E+01 uM
[6] = peptide concentration 1.53E-03 uM
[7] = peptide concentration 1.56E+00 uM
[8] = peptide concentration 1.91E-04 uM
[9] = peptide concentration 1.95E-01 uM
[10] = peptide concentration 2.38E-05 uM
[11] = peptide concentration 2.44E-02 uM
[12] = peptide concentration 2.50E+01 uM
[13] = peptide concentration 3.05E-03 uM
[14] = peptide concentration 3.12E+00 uM
[15] = peptide concentration 3.81E-04 uM
[16] = peptide concentration 3.91E-01 uM
[17] = peptide concentration 4.77E-05 uM
[18] = peptide concentration 4.88E-02 uM
[19] = peptide concentration 5.00E+01 uM
[20] = peptide concentration 6.10E-03 uM
[21] = peptide concentration 6.25E+00 uM
[22] = peptide concentration 7.63E-04 uM
[23] = peptide concentration 7.81E-01 uM
[24] = peptide concentration 9.54E-05 uM
[25] = peptide concentration 9.77E-02 uM

Ki (rat α-thrombin; average of R1-R3, read-out: Rat alpha thrombin inhibition, Ki Average): 104 nM
Rat alpha thrombin inhibition, slope normalized to DMSO (rat α-thrombin; [2]): 11.1 and 8.8 and 6.3
Rat alpha thrombin inhibition, slope normalized to DMSO (rat α-thrombin; [3]): 97.9 and 89.1 and 104.7
Rat alpha thrombin inhibition, slope normalized to DMSO (rat α-thrombin; [4]): 95.5 and 96.6 and 90.7
Rat alpha thrombin inhibition, slope normalized to DMSO (rat α-thrombin; [5]): 7.6 and 6.9 and 7.3
Rat alpha thrombin inhibition, slope normalized to DMSO (rat α-thrombin; [6]): 101.7 and 97.0 and 102.3
Rat alpha thrombin inhibition, slope normalized to DMSO (rat α-thrombin; [7]): 15.7 and 15.6 and 13.6
Rat alpha thrombin inhibition, slope normalized to DMSO (rat α-thrombin; [8]): 90.1 and 101.9 and 101.4
Rat alpha thrombin inhibition, slope normalized to DMSO (rat α-thrombin; [9]): 54.3 and 44.0 and 44.2
Rat alpha thrombin inhibition, slope normalized to DMSO (rat α-thrombin; [10]): 98.8 and 105.1 and 93.8
Rat alpha thrombin inhibition, slope normalized to DMSO (rat α-thrombin; [11]): 96.7 and 81.8 and 91.8
Rat alpha thrombin inhibition, slope normalized to DMSO (rat α-thrombin; [12]): 6.5 and 0.4 and 5.6
Rat alpha thrombin inhibition, slope normalized to DMSO (rat α-thrombin; [13]): 104.2 and 96.1 and 93.1
Rat alpha thrombin inhibition, slope normalized to DMSO (rat α-thrombin; [14]): 7.9 and 9.5 and 5.7
Rat alpha thrombin inhibition, slope normalized to DMSO (rat α-thrombin; [15]): 106.7 and 100.9 and 91.0
Rat alpha thrombin inhibition, slope normalized to DMSO (rat α-thrombin; [16]): 38.3 and 34.0 and 35.5
Rat alpha thrombin inhibition, slope normalized to DMSO (rat α-thrombin; [17]): 98.1 and 100.4 and 100.7
Rat alpha thrombin inhibition, slope normalized to DMSO (rat α-thrombin; [18]): 84.8 and 84.4 and 72.7
Rat alpha thrombin inhibition, slope normalized to DMSO (rat α-thrombin; [19]): 0.8 and 7.3 and 2.5
Rat alpha thrombin inhibition, slope normalized to DMSO (rat α-thrombin; [20]): 104.0 and 93.5 and 94.8
Rat alpha thrombin inhibition, slope normalized to DMSO (rat α-thrombin; [21]): 7.5 and 8.8 and 7.9
Rat alpha thrombin inhibition, slope normalized to DMSO (rat α-thrombin; [22]): 97.9 and 91.4 and 101.5
Rat alpha thrombin inhibition, slope normalized to DMSO (rat α-thrombin; [23]): 26.2 and 23.7 and 23.1
Rat alpha thrombin inhibition, slope normalized to DMSO (rat α-thrombin; [24]): 96.9 and 98.1 and 96.1
Rat alpha thrombin inhibition, slope normalized to DMSO (rat α-thrombin; [25]): 69.5 and 66.8
IC50 (rat α-thrombin; single replicates R1-R3, read-out: Rat alpha thrombin inhibition, IC50): 215 nM and 179 nM and 168 nM
Ki (human α-thrombin; average of R1-R3, read-out: Human alpha thrombin inhibition, Ki Average): 321 nM
Human alpha thrombin inhibition, slope normalized to DMSO (human α-thrombin; [2]): 8.6 and 8.9 and 9.5
Human alpha thrombin inhibition, slope normalized to DMSO (human α-thrombin; [3]): 104.7 and 99.7 and 99.1
Human alpha thrombin inhibition, slope normalized to DMSO (human α-thrombin; [4]): 46.3 and 101.7 and 85.0
Human alpha thrombin inhibition, slope normalized to DMSO (human α-thrombin; [5]): 5.3 and 13.8 and 11.9
Human alpha thrombin inhibition, slope normalized to DMSO (human α-thrombin; [6]): 49.9 and 105.6 and 101.7
Human alpha thrombin inhibition, slope normalized to DMSO (human α-thrombin; [7]): 36.6 and 35.2 and 35.3
Human alpha thrombin inhibition, slope normalized to DMSO (human α-thrombin; [8]): 98.2 and 106.9 and 104.5
Human alpha thrombin inhibition, slope normalized to DMSO (human α-thrombin; [9]): 49.0 and 78.5 and 77.7
Human alpha thrombin inhibition, slope normalized to DMSO (human α-thrombin; [10]): 110.3 and 103.8 and 102.6
Human alpha thrombin inhibition, slope normalized to DMSO (human α-thrombin; [11]): 87.9 and 84.7 and 102.8
Human alpha thrombin inhibition, slope normalized to DMSO (human α-thrombin; [12]): 10.1 and 9.5 and 12.3
Human alpha thrombin inhibition, slope normalized to DMSO (human α-thrombin; [13]): 53.7 and 99.4 and 62.7
Human alpha thrombin inhibition, slope normalized to DMSO (human α-thrombin; [14]): 11.6 and 29.8 and 12.4
Human alpha thrombin inhibition, slope normalized to DMSO (human α-thrombin; [15]): 68.4 and 103.9 and 101.2
Human alpha thrombin inhibition, slope normalized to DMSO (human α-thrombin; [16]): 64.4 and 65.7 and 57.7
Human alpha thrombin inhibition, slope normalized to DMSO (human α-thrombin; [17]): 106.6 and 102.8 and 103.1
Human alpha thrombin inhibition, slope normalized to DMSO (human α-thrombin; [18]): 55.2 and 93.5 and 76.8
Human alpha thrombin inhibition, slope normalized to DMSO (human α-thrombin; [19]): 11.6 (2×) and 7.0
Human alpha thrombin inhibition, slope normalized to DMSO (human α-thrombin; [20]): 92.4 and 103.3 and 95.4
Human alpha thrombin inhibition, slope normalized to DMSO (human α-thrombin; [21]): 8.5 and 19.8 and 17.9
Human alpha thrombin inhibition, slope normalized to DMSO (human α-thrombin; [22]): 104.5 and 110.5 and 71.2
Human alpha thrombin inhibition, slope normalized to DMSO (human α-thrombin; [23]): 53.0 and 40.3 and 48.0
Human alpha thrombin inhibition, slope normalized to DMSO (human α-thrombin; [24]): 104.5 and 106.6 and 99.3
Human alpha thrombin inhibition, slope normalized to DMSO (human α-thrombin; [25]): 84.9 and 80.9 and 75.3
IC50 (human α-thrombin; single replicates R1-R3, read-out: Human alpha thrombin inhibition, IC50): 141 nM and 513 nM and 595 nM
PAMPA permeability: % permeability ([1]; 50 μM, 12–18 h, acceptor concentration relative to equilibrium): 70 ± 22%
Permeability% (single replicates R1–R3) ([1]; 50 μM, 13 h (Fig. 5d)): 83.98% and 44.59% and 81.97%
Permeability% Average ([1]; 50 μM, 13 h (Fig. 5d)): 70.2%
Papp at 50 μM ([1]; PAMPA, pH 7.4): 11.2 ×10⁻⁶ cm/s
SMILES: O=C1C[C@H]2CCCN2C(=O)[C@H](Cc2ccccc2)NC(=O)[C@@H](NC(=O)c2ccc(Cl)s2)CCCC=CCCCN1 [compound 42]
Ki (rat α-thrombin; single replicates R1-R3, read-out: Rat alpha thrombin inhibition, Ki): 119 nM (2×) and 98.9 nM (2×) and 92.9 nM (2×)
Ki (human α-thrombin; single replicates R1-R3, read-out: Human alpha thrombin inhibition, Ki): 108 nM (2×) and 396 nM (2×) and 459 nM (2×)
